Experimental data as given in patent US20180000085A1, “USE OF PICOLINAMIDE COMPOUNDS WITH FUNGICIDAL ACTIVITY” (DOW AGROSCIENCES LLC, priority 2014, published 2018).

Tests used:
Zymoseptoria tritici = experiment: Leaf blotch of wheat (SEPTTR) disease control on wheat seedlings; assay type: in vivo; parameters: key to SEPTTR 1DP, HV activity at 100 ppm (% control rating) / SEPTTR 3DC, HV activity at 100 ppm (% control rating) / SEPTTR disease control, 1DP / SEPTTR disease control, 3DC / SEPTTR 1DP disease control rating, HV activity / SEPTTR 3DC disease control rating, HV activity / SEPTTR 3DC, LV activity at 125.1 g/H (% Control rating) / SEPTTR 1DP, LV activity at 125.1 g/H (% Control rating) / SEPTTR 1DP disease control rating, LV activity at 125.1 g/H / SEPTTR 3DC disease control rating, LV activity at 125.1 g/H / SEPTTR 3DC disease control rating, HV activity at 100 ppm / SEPTTR 1DP disease control rating, HV activity at 100 ppm / HV activity at 100 ppm SEPTTR 3DC (disease control rating) / HV activity at 100 ppm SEPTTR 1DP (disease control rating) / LV activity at 125.1 g/H SEPTTR 1DP (disease control rating) / LV activity at 125.1 g/H SEPTTR 3DC (disease control rating): A: > 80; B: ≤ 80; C: Not Tested; D: No Activity Observed in the Reported Assay; conditions: low volume application, 125.1 g/H; for SEPTTR 1DP, LV activity at 125.1 g/H (% Control rating): 1 Day Protectant; for SEPTTR 3DC, LV activity at 125.1 g/H (% Control rating): 3 Day Curative; for SEPTTR 1DP disease control rating, LV activity at 125.1 g/H: 1 day protectant; for SEPTTR 3DC disease control rating, LV activity at 125.1 g/H: 3 day curative
Puccinia triticina = experiment: Wheat brown rust (PUCCRT) disease control on wheat seedlings; assay type: in vivo; parameters: key to PUCCRT 3DC, HV activity at 100 ppm (% control rating) / PUCCRT disease control, 3DC / PUCCRT 1DP disease control rating, HV activity / PUCCRT 3DC disease control rating, HV activity / PUCCRT 3DC, LV activity at 125.1 g/H (% Control rating) / PUCCRT 1DP, LV activity at 125.1 g/H (% Control rating) / PUCCRT 3DC disease control rating, LV activity at 125.1 g/H / PUCCRT 1DP disease control rating, LV activity at 125.1 g/H / PUCCRT 3DC disease control rating, HV activity at 100 ppm / PUCCRT 1DP disease control rating, HV activity at 100 ppm / HV activity at 100 ppm PUCCRT 3DC (disease control rating) / LV activity at 125.1 g/H PUCCRT 1DP (disease control rating) / LV activity at 125.1 g/H PUCCRT 3DC (disease control rating): A: > 80; B: ≤ 80; C: Not Tested; D: No Activity Observed in the Reported Assay; conditions: low volume application, 125.1 g/H; for PUCCRT 1DP, LV activity at 125.1 g/H (% Control rating): 1 Day Protectant; for PUCCRT 3DC, LV activity at 125.1 g/H (% Control rating): 3 Day Curative; for PUCCRT 1DP disease control rating, LV activity at 125.1 g/H: 1 day protectant; for PUCCRT 3DC disease control rating, LV activity at 125.1 g/H: 3 day curative

| SMILES | SEPTTR 1DP, LV activity at 125.1 g/H (% Control rating) (Zymoseptoria tritici) | SEPTTR 3DC, LV activity at 125.1 g/H (% Control rating) (Zymoseptoria tritici) | PUCCRT 1DP, LV activity at 125.1 g/H (% Control rating) (Puccinia triticina) | PUCCRT 3DC, LV activity at 125.1 g/H (% Control rating) (Puccinia triticina) | SEPTTR 1DP disease control rating, LV activity at 125.1 g/H (Zymoseptoria tritici) | SEPTTR 3DC disease control rating, LV activity at 125.1 g/H (Zymoseptoria tritici) | PUCCRT 1DP disease control rating, LV activity at 125.1 g/H (Puccinia triticina) | PUCCRT 3DC disease control rating, LV activity at 125.1 g/H (Puccinia triticina) |
| --- | --- | --- | --- | --- | --- | --- | --- | --- |
| CCC(CC)[C@@H](Oc1ccccc1Cl)[C@H](C)OC(=O)[C@@H](NC(=O)c1nccc(OC)c1OCOC(C)=O)C(C)C [Cmpd 652] | B (≤ 80) | B (≤ 80) | A (> 80) | B (≤ 80) |  |  |  |  |
| CCC(CC)[C@@H](Oc1ccc(C(F)(F)F)cc1)[C@H](C)OC(=O)[C@@H](NC(=O)c1nccc(OC)c1OCOC(C)=O)C(C)C [Cmpd 653] | D | B (≤ 80) | A (> 80) | B (≤ 80) |  |  |  |  |
| CCC(CC)[C@@H](Oc1cccc(-c2ccccc2)c1)[C@H](C)OC(=O)[C@@H](NC(=O)c1nccc(OC)c1OCOC(C)=O)C(C)C [Cmpd 654] | B (≤ 80) | D | A (> 80) | D |  |  |  |  |
| CCC(CC)[C@@H](Oc1ccc(-c2ccccc2)cc1)[C@H](C)OC(=O)[C@@H](NC(=O)c1nccc(OC)c1OCOC(C)=O)C(C)C [Cmpd 655] | A (> 80) | B (≤ 80) | A (> 80) | B (≤ 80) |  |  |  |  |
| CCC(CC)[C@@H](Oc1ccc(F)cc1)[C@H](C)OC(=O)[C@@H](NC(=O)c1nccc(OC)c1OC(C)=O)C(C)C [Cmpd 657] | A (> 80) | B (≤ 80) | A (> 80) | B (≤ 80) |  |  |  |  |
| CCC(CC)[C@@H](Oc1cccc(Cl)c1)[C@H](C)OC(=O)[C@@H](NC(=O)c1nccc(OC)c1OC(C)=O)C(C)C [Cmpd 658] |  |  |  |  | D | B (≤ 80) | A (> 80) | B (≤ 80) |
| CCC(CC)[C@@H](Oc1ccccc1Cl)[C@H](C)OC(=O)[C@@H](NC(=O)c1nccc(OC)c1OC(C)=O)C(C)C [Cmpd 662] |  |  |  |  | D | B (≤ 80) | A (> 80) | B (≤ 80) |
| CCC(CC)[C@@H](Oc1cccc(-c2ccccc2)c1)[C@H](C)OC(=O)[C@@H](NC(=O)c1nccc(OC)c1OC(C)=O)C(C)C [Cmpd 664] |  |  |  |  | D | D | A (> 80) | D |
| CCC(CC)[C@H](Oc1cc(F)ccc1F)[C@H](C)OC(=O)[C@H](C)NC(=O)c1nccc(OC)c1OCOC(C)=O [Cmpd 671] |  |  |  |  | D | B (≤ 80) | A (> 80) | A (> 80) |
| CCC(CC)[C@H](Oc1cc(F)cc(Cl)c1)[C@H](C)OC(=O)[C@H](C)NC(=O)c1nccc(OC)c1OCOC(C)=O [Cmpd 672] |  |  |  |  | A (> 80) | B (≤ 80) | A (> 80) | B (≤ 80) |
| CCC(CC)C(Oc1cccc(F)c1)C(C)OC(=O)C(C)NC(=O)c1nccc(OC)c1OC(C)=O (stereo not drawn) [Cmpd 673] |  |  |  |  | B (≤ 80) | A (> 80) | A (> 80) | B (≤ 80) |
| CCC(CC)C(Oc1ccc(Cl)cc1)C(C)OC(=O)C(C)NC(=O)c1nccc(OC)c1OC(C)=O (stereo not drawn) [Cmpd 674] |  |  |  |  | A (> 80) | A (> 80) | A (> 80) | B (≤ 80) |
